We go through 14 compounds from US11291648B2, “Powdered formulations of cromolyn sodium and alpha-lactose” (The General Hospital Corporation, priority 2018, dated 2022).

Where two headings read alike, the source gives them in different places.

For data set [1] the following is noted: Table 5, Gilani et al.; cited from earlier work.
A short description of data set [2]: Particle size distribution (PSD) of formulation components. The conditions noted are these: for D10 / D50 / D90: Cromolyn API (micronized), Table 2; for D10 (3-6 μm) / D50 (20-25 μm) / D90 (50-60 μm): α-Lactose (DFE Pharma Lactohale LH201), Table 3; for D50 (<5 μm) / D90 (<10 μm): Magnesium Stearate (micronized), Table 4. The class given is physicochemical. An excerpt: The methodology included particle size determination (PSD); powdered x-ray crystallization diffraction (PXRD); and gravimetric vapor sorption (GVS).

Take `OC[C@H]1O[C@@H](O[C@H]2[C@H](O)[C@@H](O)[C@@H](O)O[C@@H]2CO)[C@H](O)[C@@H](O)[C@H]1O` [Batch P325M, α-Lactose]: in data set [1], the D10 is 6.6 ± 0.8 and the D90 is given as 74.1 ± 3.8.

As for `OC[C@H]1O[C@@H](O[C@H]2[C@H](O)[C@@H](O)[C@@H](O)O[C@@H]2CO)[C@H](O)[C@@H](O)[C@H]1O` [Batch P450M, α-Lactose], in data set [1], the D10 is reported as 2.5 ± 0.3 and the D90 was 26.5 ± 0.3.

As to `O=C(O)c1cc(=O)c2c(OCC(O)COc3cccc4oc(C(=O)O)cc(=O)c34)cccc2o1` [Cromolyn Sodium, Cromolyn sodium], in data set [1], the D10 is reported as 0.7 ± 0.1, the D50 is 1.52 ± 0.2 and the D90 is on record as 3.03 ± 0.02. Moreover, in data set [2] (component of Batch 1, Table 8), the “Particle size D10” value stood at 0.6 μm, the “Particle size D50” value was determined as 1.8 μm and the “Particle size D90” value was 3.8 μm. Also, in data set [2] (component of Batch 2, Table 8), the “Particle size D90” value turned out to be 4.2 μm. Moreover, in data set [2] (component of Batch 3, Table 8), the “Particle size D10” value came to 0.6 μm, the “Particle size D50” value was found to be 1.8 μm and the “Particle size D90” value was 3.8 μm.

With `O=C(O)c1cc(=O)c2c(OCC(O)COc3cccc4oc(C(=O)O)cc(=O)c34)cccc2o1` [Lot # 13-0105, Cromolyn sodium], in data set [2] (listed as 13-0105), the D10 came out at 0.5 μm, the D50 was 1.9 μm and the D90 is 4.6 μm.

In data set [2] (listed as 15-0013), `O=C(O)c1cc(=O)c2c(OCC(O)COc3cccc4oc(C(=O)O)cc(=O)c34)cccc2o1` [Lot # 15-0013, Cromolyn sodium] yielded a D10 of 0.6 μm, a D50 of 1.8 μm and a D90 of 3.8 μm.

Turning to `O=C(O)c1cc(=O)c2c(OCC(O)COc3cccc4oc(C(=O)O)cc(=O)c34)cccc2o1` [Lot # 15-0079, Cromolyn sodium], in data set [2] (listed as 15-0079), the D90 worked out at 4.2 μm.

Regarding `OC[C@H]1O[C@@H](O[C@H]2[C@H](O)[C@@H](O)[C@@H](O)O[C@@H]2CO)[C@H](O)[C@@H](O)[C@H]1O` [Lot# 13-0094, α-Lactose], in data set [2] (listed as 13-0094), the “D10 (3-6 μm)” value worked out at 3 μm, the “D50 (20-25 μm)” value is 21 μm and the “D90 (50-60 μm)” value worked out at 54 μm.

With `OC[C@H]1O[C@@H](O[C@H]2[C@H](O)[C@@H](O)[C@@H](O)O[C@@H]2CO)[C@H](O)[C@@H](O)[C@H]1O` [Lot# 15-0066, α-Lactose], in data set [2] (listed as 15-0066), the “D10 (3-6 μm)” value came out at 4 μm, the “D50 (20-25 μm)” value is recorded as 23 μm and the “D90 (50-60 μm)” value is given as 57 μm.

For `OC[C@H]1O[C@@H](O[C@H]2[C@H](O)[C@@H](O)[C@@H](O)O[C@@H]2CO)[C@H](O)[C@@H](O)[C@H]1O` [Lot# 16-0127, α-Lactose], in data set [2] (listed as 16-0127), the “D10 (3-6 μm)” value is on record as 3 μm, the “D50 (20-25 μm)” value is 22 μm and the “D90 (50-60 μm)” value came to 59 μm.

As to `OC[C@H]1O[C@@H](O[C@H]2[C@H](O)[C@@H](O)[C@@H](O)O[C@@H]2CO)[C@H](O)[C@@H](O)[C@H]1O` [α-Lactose], the “Particle size D10” value in data set [2] (component of Batch 1, Table 8) is on record as 3 μm; in data set [2] (component of Batch 2, Table 8), 4 μm; in data set [2] (component of Batch 3, Table 8), 3 μm. Further, the “Particle size D50” value in data set [2] (component of Batch 1, Table 8) is listed as 21 μm; in data set [2] (component of Batch 2, Table 8) it was 23 μm; in data set [2] (component of Batch 3, Table 8), 22 μm. The “Particle size D90” value in data set [2] (component of Batch 1, Table 8) was determined as 54 μm; in data set [2] (component of Batch 2, Table 8), 57 μm; in data set [2] (component of Batch 3, Table 8) it was 59 μm.

Turning to Magnesium Stearate [Lot 14-0035], in data set [2] (listed as 14-0035), the “D50 (<5 μm)” value is on record as 3.56 μm and the “D90 (<10 μm)” value stood at 6.74 μm.

For Magnesium Stearate [Lot 15-0077], in data set [2] (listed as 15-0077), the “D50 (<5 μm)” value was found to be 4.82 μm and the “D90 (<10 μm)” value was 9.28 μm.

Magnesium Stearate [Lot 18-0038]: in data set [2] (listed as 18-0038), the “D50 (<5 μm)” value is 4.33 μm and the “D90 (<10 μm)” value is given as 8.04 μm.

Consider Magnesium Stearate [Mg St], for which the “Particle size D10” value in data set [2] (component of Batch 1, Table 8) was determined as 3.3 μm. The “Particle size D50” value in data set [2] (component of Batch 1, Table 8) turned out to be 8.3 μm; in data set [2] (component of Batch 2, Table 8) it was 4.82 μm; in data set [2] (component of Batch 3, Table 8), 4.33 μm. Moreover, the “Particle size D90” value in data set [2] (component of Batch 1, Table 8) is listed as 22.6 μm; in data set [2] (component of Batch 2, Table 8), 9.28 μm; in data set [2] (component of Batch 3, Table 8), 8.04 μm.
